# Legend:
# CHOP = test: Western blot of CHOP upregulation (UPR, downstream of PERK); type: cell-based, Human; conditions: cells incubated with A2E
# Procedure: Immunoblotting. Total cell lysates were extracted using RIPA lysis buffer (50 mM TrisHCl, Ph 8.0, 150 mM NaCl, 1% NP40, 0.5% Sodium Deoxycholate, 0.1% SDS, protease-phosphatase inhibitor) after the incubation of the specific sample group in a 48 well plate. Sonication or syringing (20 times) was done followed by centrifugation at 12,000×g for 10 mins and the supernatant was collected and stored in −80° C. Proten concentration from homogenates were assessed by Pierce Rapid Gold BCA protein assay kit (ThermoFisher Scientific, cat.no. A53225). Then 30 μg of protein was analyzed by standard SDS-PAGE gel. Samples were mixed 4:1 (v:v) with Nupage loading buffer with or without 8% 0-mercaptoethanol and heated for 10 min at 72° C. SDS-PAGE was done using 4-12% Nupage gel and buffer (Life, NP0335BOX). Next, SDS-PAGE gel was transferred to nitrocellulose membrane (Whatman, PROTAN BA83) overnight at 20V. The following day, 5% milk in TBS was used for 2 h blocking the membrane and then primary antibody was added in TBST (TBS, 0.1% Tween-20) for overnight at 4° C. Next day membranes were washed and incubated for 2 hours at room temperature with HRP conjugated secondary antibody (cat #G21234, Invitrogen) at 1:10,000 dilution. After 3 more washed membranes were probed with enhanced chemiluminescence (ECL) reagent and detected using an X-ray films for chemiluminescence image (GE healthcare, RPN2106). Scanning/imaging and quantitation of the image was done using silverfast 8 application software and Fiji Image J. Antibodies for Western blotting were list in FIG. 10.
# cathepsin D = type: cell-based
# Text: Next, A2E buildups were imaged using a combination of DIC and fluorescence: A2E appeared as granules with well-defined edges, both within cells or after drying over a coverslip (FIGS. 14D and 14E). Next, the ability of the suspected A2E crystals to damage lysosomal membranes was investigated. A recently developed galectin-3 puncta assay for early detection of lysosomal membrane permeabilization (LMP) was used. Briefly, cytosolic galectin-3 rapidly binds to the glycocalyx in the luminal face of lysosomal membranes as they become leaky, which is easily detectable with anti-galectin high-affinity antibodies. L-Leucyl-L-Leucine methyl ester (LLO) a lysosomotropic peptide that causes LMP was used as positive control of puncta formation (FIG. 14E). […] LMP was confirmed by showing the […] of cathepsin D, as surrogate of lysosomal enzymes. […] Also, very remarkable was the observation that the same unique pattern of protection with arimoclomol and Nec-7 but not Nec-1 was observable for LLO (FIG. 14K), consistent with the idea that necroptosis by A2E is being caused by LMP.
structure (smiles),measurement,setting,value
"N=C1S/C(=C\c2cn[nH]c2-c2ccc(F)cc2)C(=O)N1c1nccs1 [Nec7, Necrostatin 7]",effect on LF-induced upregulation of CHOP / UPR,CHOP,completely abrogated
same,effect on loss of cathepsin-D activity caused by A2E,cathepsin D,prevented

# Reference: patent US20240082221A1, “COMPOSITIONS AND METHODS FOR THE IDENTIFICATION OF COMPOUNDS THAT PROTECT AGAINST LIPOFUSCIN CYTOTOXICITY” (priority 2021, published 2024)
